Measured values reported in ChEMBL document CHEMBL1151292, “Antineoplastic activity and cytotoxicity of flavones, isoflavones, and flavanones” (1979).
Values after ≈ are worked out from the molar mass of the structure shown. Active and inactive are the calls of the source.

Key:
CCRF S-180 = assay: In vivo antitumor activity against mouse S180 cells; format: functional, organism-based
PX = assay: In vivo antitumor activity against hamster PX cells; format: functional, organism-based; conditions: Cricetinae
CA-755 = assay: In vivo antitumor activity against mouse CA-755 cells; format: functional, organism-based
KB = assay: Cytotoxicity against human KB cells; format: functional; conditions: read-out: ED50 (the source's name)
P1 = assay: In vivo antitumor activity against hamster P1 cells; format: functional, organism-based; conditions: Cricetinae
L1210 = assay: In vivo antitumor activity against mouse L1210 cells; format: functional, organism-based
P388 = assay: In vivo antitumor activity against mouse P388 cells; format: functional, organism-based
FV = assay: In vivo antitumor activity against mouse FV cells; format: functional, organism-based
Walker 256 = assay: In vivo antitumor activity against rat Walker 256 cells; format: functional, organism-based
[1] = system: Lewis lung carcinoma cell line; assay: In vivo antitumor activity against mouse LLC cells; format: functional, organism-based
B16 = assay: In vivo antitumor activity against mouse B16 carcinoma cells; format: functional, organism-based
P1798 = assay: In vivo antitumor activity against mouse P1798 cells; format: functional, organism-based
Rattus norvegicus = assay: In vivo antitumor activity against rat dunning leukemia cells; format: functional, organism-based

COc1ccc(-c2cc(=O)c3c(OC)c(OC)c(OC)c(OC)c3o2)cc1 [TANGERETIN]
Activity (CCRF S-180): inactive | Activity (PX): Active | Activity (CA-755): inactive | EC50 (KB): 15 µg/mL (≈ 40.3 µM) | Activity (P1): inactive | Activity (L1210): inactive

O=C1c2cc(O)c(O)cc2OC(c2ccc(O)c(O)c2)C1O (stereo unspecified)
Activity (CCRF S-180): inactive | Activity (P388): inactive | Activity (L1210): inactive

COc1ccc(-c2oc3cc(O)c(OC)c(O)c3c(=O)c2OC)cc1O [CENTAUREIDIN]
Activity (P388): inactive | EC50 (KB): 0.4 µg/mL (≈ 1.11 µM)

O=c1c(O)c(-c2ccc(O)cc2O)oc2cc(O)cc(O)c12
Activity (CCRF S-180): inactive | Activity (CA-755): inactive | Activity (P388): inactive | Activity (L1210): inactive

COc1cccc(OC)c1-c1oc2ccccc2c(=O)c1O
Activity (CCRF S-180): inactive | Activity (P388): inactive | Activity (FV): inactive | EC50 (KB): 1 µg/mL (≈ 3.35 µM) | Activity (L1210): inactive

O=c1c(O[C@@H]2O[C@H](CO)[C@@H](O)[C@H](O)[C@H]2O)c(-c2ccc(O)c(O)c2)oc2cc(O)cc(O)c12 [ISOQUERCETIN]
Activity (CCRF S-180): inactive | Activity (Walker 256): inactive | Activity (CA-755): inactive | Activity (P388): inactive | EC50 (KB): > 100 µg/mL | Activity (L1210): inactive

O=c1c(O)c(-c2ccccc2)oc2ccccc12 [FLAVONOL]
Activity (CCRF S-180): inactive | Activity (CA-755): inactive | Activity (P388): inactive | EC50 (KB): 0.2 µg/mL (≈ 0.839 µM) | Activity [1]: inactive | Activity (B16): inactive | Activity (L1210): inactive

O=c1c(O)c(-c2cc(O)c(O)c(O)c2)oc2cc(O)cc(O)c12 [MYRICETIN]
EC50 (KB): 15 µg/mL (≈ 47.1 µM) | Activity (B16): inactive | Activity (L1210): inactive

COc1ccc(-c2cc(=O)c3c(O)cc(OC)cc3o2)cc1 [APIGENIN DIMETHYLETHER]
Activity (CCRF S-180): inactive | Activity (P388): inactive | EC50 (KB): 45 µg/mL (≈ 151 µM) | Activity [1]: inactive | Activity (L1210): inactive

COc1ccc(-c2cc(=O)c3cc(OC)c(OC)c(OC)c3o2)cc1
Activity (CCRF S-180): inactive | Activity (Walker 256): inactive | Activity (FV): inactive | EC50 (KB): 5 µg/mL (≈ 14.6 µM) | Activity [1]: inactive

COc1ccc(-c2cc(=O)c3c(O)c(OC)c(O)cc3o2)cc1 [PECTOLINARIGENIN]
Activity (CCRF S-180): inactive | Activity (Walker 256): inactive | Activity (P388): inactive | EC50 (KB): 3 µg/mL (≈ 9.55 µM) | Activity (L1210): inactive

COc1ccc(-c2oc3cc(O)cc(O)c3c(=O)c2OC)cc1O
Activity (P388): inactive | EC50 (KB): 2 µg/mL (≈ 6.06 µM)

Cc1ccc2oc(-c3ccccc3)c(O)c(=O)c2c1
Activity (CCRF S-180): inactive | Activity (P388): inactive | EC50 (KB): 2 µg/mL (≈ 7.93 µM) | Activity (B16): inactive | Activity (L1210): inactive

COc1cc(O)c2c(=O)cc(-c3ccccc3)oc2c1 [TECHTOCHRYSIN]
Activity (P1798): inactive | EC50 (KB): 49 µg/mL (≈ 183 µM) | Activity (Rattus norvegicus): inactive | Activity (L1210): inactive

COc1ccc(-c2cc(=O)c3c(O)cc(O)cc3o2)cc1 [ACACETIN]
Activity (CCRF S-180): inactive | Activity (CA-755): inactive | Activity (P388): inactive | EC50 (KB): > 100 µg/mL | Activity (L1210): inactive

O=c1cc(-c2ccc(O)cc2)oc2cc(O)cc(O)c12 [APIGENIN]
Activity (P1798): inactive | EC50 (KB): 7.4 µg/mL (≈ 27.4 µM) | Activity (Rattus norvegicus): inactive | Activity (L1210): inactive

O=c1c(O)c(-c2ccc(O)c(O)c2)oc2cc(O)ccc12 [FISETIN]
Activity (CCRF S-180): inactive | Activity (P388): inactive | EC50 (KB): > 100 µg/mL | Activity [1]: inactive | Activity (L1210): inactive
